Experimental data from PubChem BioAssay AID2060896 (Molecular Pharmacology Branch, DTP, NCI, 2025).
Values belong to the compound of their own block, whether it stands above or below them.

Tested on: 941728-121-R-J1-PDC complex spheroid viability
Test: Anticancer human tumor 941728-121-R-J1-PDC patient-derived lung adenocarcinoma cell line growth inhibition [RAS]
Conditions: for IC50: curve of first compound; for viability, T/C: stronger effect = lower value
How it was run: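 Multi-cell-type spheroids: tumor cells plus HUVEC endothelial cells and mesenchymal stem cells. RAS-pathway inhibitors were combined with targeted agents, each dosed in half-log steps down from clinical Cmax, or from 10 microM when Cmax was unknown.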

[1] = second compound 0.000949 µM, first compound 0.0316 µM
[2] = second compound 0.000949 µM, first compound 0.1 µM
[3] = second compound 0.000949 µM, first compound 0.316 µM
[4] = second compound 0.000949 µM, first compound 1 µM
[5] = second compound 0.003 µM, first compound 0.0316 µM
[6] = second compound 0.003 µM, first compound 0.1 µM
[7] = second compound 0.003 µM, first compound 0.316 µM
[8] = second compound 0.003 µM, first compound 1 µM
[9] = second compound 0.00949 µM, first compound 0.0316 µM
[10] = second compound 0.00949 µM, first compound 0.1 µM
[11] = second compound 0.00949 µM, first compound 0.316 µM
[12] = second compound 0.00949 µM, first compound 1 µM
[13] = second compound 0.03 µM, first compound 0.0316 µM
[14] = second compound 0.03 µM, first compound 0.1 µM
[15] = second compound 0.03 µM, first compound 0.316 µM
[16] = second compound 0.03 µM, first compound 1 µM
[17] = second compound 0.0949 µM, first compound 0.0316 µM
[18] = second compound 0.0949 µM, first compound 0.1 µM
[19] = second compound 0.0949 µM, first compound 0.316 µM
[20] = second compound 0.0949 µM, first compound 1 µM
[21] = second compound 0.3 µM, first compound 0.0316 µM
[22] = second compound 0.3 µM, first compound 0.1 µM
[23] = second compound 0.3 µM, first compound 0.316 µM
[24] = second compound 0.3 µM, first compound 1 µM
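Also: spheroids exposed to compounds for 7 days before readout.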
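For viability, T/C in this document: 100% = DMSO vehicle control viability.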

IC50 (second compound 0.000949 µM): < 3.16 nM
IC50 (second compound 0.003 µM): < 3.16 nM
IC50 (second compound 0.00949 µM): < 3.16 nM
IC50 (second compound 0.03 µM): < 3.16 nM
IC50 (second compound 0.0949 µM): < 3.16 nM
IC50 (second compound 0.3 µM): < 3.16 nM
Structure (SMILES): C=CC(=O)Nc1cc(Nc2nccc(-c3cn(C)c4ccccc34)n2)c(OC)cc1N(C)CCN(C)C + CCn1c(-c2cc(N3CCN(C)CC3)cnc2C(C)OC)c2c3cc(ccc31)-c1csc(n1)CC(NC(=O)C1CC1C)C(=O)N1CCCC(N1)C(=O)OCC(C)(C)C2
viability, T/C (second compound 0.000949 µM, first compound 0.00316 µM): 29.3%
viability, T/C (second compound 0.000949 µM, first compound 0.01 µM): 29.5%
viability, T/C [1]: 22.1%
viability, T/C [2]: 23.4%
viability, T/C [3]: 24.8%
viability, T/C [4]: 14%
viability, T/C (second compound 0.003 µM, first compound 0.00316 µM): 25.4%
viability, T/C (second compound 0.003 µM, first compound 0.01 µM): 20.8%
viability, T/C [5]: 17.2%
viability, T/C [6]: 18.8%
viability, T/C [7]: 15.5%
viability, T/C [8]: 8.05%
viability, T/C (second compound 0.00949 µM, first compound 0.00316 µM): 16.4%
viability, T/C (second compound 0.00949 µM, first compound 0.01 µM): 15%
viability, T/C [9]: 14.4%
viability, T/C [10]: 14.4%
viability, T/C [11]: 13.7%
viability, T/C [12]: 9.82%
viability, T/C (second compound 0.03 µM, first compound 0.00316 µM): 15.8%
viability, T/C (second compound 0.03 µM, first compound 0.01 µM): 14.8%
viability, T/C [13]: 15.7%
viability, T/C [14]: 14.6%
viability, T/C [15]: 10.7%
viability, T/C [16]: 12%
viability, T/C (second compound 0.0949 µM, first compound 0.00316 µM): 12.9%
viability, T/C (second compound 0.0949 µM, first compound 0.01 µM): 14.7%
viability, T/C [17]: 14.6%
viability, T/C [18]: 16.5%
viability, T/C [19]: 10.3%
viability, T/C [20]: 13.9%
viability, T/C (second compound 0.3 µM, first compound 0.00316 µM): 13.1%
viability, T/C (second compound 0.3 µM, first compound 0.01 µM): 14.1%
viability, T/C [21]: 15%
viability, T/C [22]: 12.4%
viability, T/C [23]: 10.7%
viability, T/C [24]: 11.6%

IC50 (second compound 0.000949 µM): < 31.6 nM
IC50 (second compound 0.003 µM): < 31.6 nM
IC50 (second compound 0.00949 µM): < 31.6 nM
IC50 (second compound 0.03 µM): < 31.6 nM
IC50 (second compound 0.0949 µM): < 31.6 nM
IC50 (second compound 0.3 µM): < 31.6 nM
Structure (SMILES): CC(C)NCC(C(=O)N1CCN(c2ncnc3c2C(C)CC3O)CC1)c1ccc(Cl)cc1 (centres undefined) + CCn1c(-c2cc(N3CCN(C)CC3)cnc2C(C)OC)c2c3cc(ccc31)-c1csc(n1)CC(NC(=O)C1CC1C)C(=O)N1CCCC(N1)C(=O)OCC(C)(C)C2
viability, T/C [1]: 28.7%
viability, T/C [2]: 28.3%
viability, T/C [3]: 18.8%
viability, T/C [4]: 20.1%
viability, T/C (second compound 0.000949 µM, first compound 3.16 µM): 19%
viability, T/C (second compound 0.000949 µM, first compound 10 µM): 10.4%
viability, T/C [5]: 22.7%
viability, T/C [6]: 23.5%
viability, T/C [7]: 16.5%
viability, T/C [8]: 20.5%
viability, T/C (second compound 0.003 µM, first compound 3.16 µM): 14.6%
viability, T/C (second compound 0.003 µM, first compound 10 µM): 8.01%
viability, T/C [9]: 17.7%
viability, T/C [10]: 14.9%
viability, T/C [11]: 15.2%
viability, T/C [12]: 12.3%
viability, T/C (second compound 0.00949 µM, first compound 3.16 µM): 9.47%
viability, T/C (second compound 0.00949 µM, first compound 10 µM): 5.47%
viability, T/C [13]: 13.1%
viability, T/C [14]: 14%
viability, T/C [15]: 14.2%
viability, T/C [16]: 11.3%
viability, T/C (second compound 0.03 µM, first compound 3.16 µM): 8.42%
viability, T/C (second compound 0.03 µM, first compound 10 µM): 4.92%
viability, T/C [17]: 12.4%
viability, T/C [18]: 13.6%
viability, T/C [19]: 11.9%
viability, T/C [20]: 12.1%
viability, T/C (second compound 0.0949 µM, first compound 3.16 µM): 5.65%
viability, T/C (second compound 0.0949 µM, first compound 10 µM): 5.14%
viability, T/C [21]: 11.1%
viability, T/C [22]: 14.2%
viability, T/C [23]: 13.5%
viability, T/C [24]: 10%
viability, T/C (second compound 0.3 µM, first compound 3.16 µM): 8.91%
viability, T/C (second compound 0.3 µM, first compound 10 µM): 4.65%
